Measurements published in PubChem BioAssay AID602120 (Johns Hopkins Ion Channel Center, 2011).

Target: Potassium voltage-gated channel subfamily KQT member 1 (Homo sapiens) (UniProt P51787)
Test: PubChem AID 602120
Details: KCNQ1-CHO cells, manual whole-cell patch clamp current; at 0.3 µM; hits give high values

Chain of Potassium voltage-gated channel subfamily KQT member 1 (Homo sapiens) (P51787 whole entry, looked up): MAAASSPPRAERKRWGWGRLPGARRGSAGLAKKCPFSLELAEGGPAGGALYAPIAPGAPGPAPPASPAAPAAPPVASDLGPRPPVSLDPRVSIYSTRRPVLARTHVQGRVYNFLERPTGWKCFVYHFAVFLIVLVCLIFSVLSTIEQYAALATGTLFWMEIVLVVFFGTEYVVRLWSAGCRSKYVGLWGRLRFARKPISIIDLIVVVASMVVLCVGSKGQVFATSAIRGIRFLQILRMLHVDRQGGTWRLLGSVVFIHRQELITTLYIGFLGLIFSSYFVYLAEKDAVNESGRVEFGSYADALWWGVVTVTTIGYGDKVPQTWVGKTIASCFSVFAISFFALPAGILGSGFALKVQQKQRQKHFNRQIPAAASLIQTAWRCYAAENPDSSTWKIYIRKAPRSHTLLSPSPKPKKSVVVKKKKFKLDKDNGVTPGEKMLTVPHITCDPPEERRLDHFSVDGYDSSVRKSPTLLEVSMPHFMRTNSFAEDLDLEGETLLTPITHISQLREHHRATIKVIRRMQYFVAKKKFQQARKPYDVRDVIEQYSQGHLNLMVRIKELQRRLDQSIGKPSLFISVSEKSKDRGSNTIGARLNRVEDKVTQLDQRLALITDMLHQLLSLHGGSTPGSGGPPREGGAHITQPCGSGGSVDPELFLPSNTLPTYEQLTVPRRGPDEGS

**Q.** For `COc1ccc(-c2csc(NC(=O)[C@H]3CCCCN3S(=O)(=O)c3ccc(C)cc3)n2)cc1`, which fold activation is on record?
**A.** Its fold activation is 46.9.
